Source: ChEMBL document CHEMBL3259589, “Synthesis and radical-scavenging activity of a dimethyl catechin analogue” (Bioorg Med Chem Lett, 2014)

Experiment: Antioxidant activity assessed as galvinoxyl free radical scavenging activity measured as second order rate constant by spectrophotometry
Type: functional

Compound: Oc1cc(O)c2c(c1)O[C@H](c1ccc(O)c(O)c1)[C@@H](O)C2
- K (10'1mol/dm3/s): 3.87
